Measurements taken from US11484708B2, “Methods and devices for surgical pre-treatment” (Vomaris Innovations, Inc., priority 2014, dated 2022).

Tests used:
HUVEC cells [1] = assay: EF-induced elongation of endothelial cells (long:short axis ratio); format: cell-based, human; settings: for long:short axis ratio in EF-treated cells: inhibitor 50 μM, vs control
Description: Tissue culture reagents were obtained from Life Technologies UK. […] Rhodamine-phalloidin (E3478) was obtained from Molecular Probes (Leiden, The Netherlands) and anti-tubulin conjugated with FITC was obtained from Sigma. The HUVEC cell line from ATCC was used prior to passage 10. Dulbecco's modified Eagle's medium (DMEM) with 10% fetal bovine serum (FBS) was used for culture cells and EF exposure experiments.
HUVEC cells were seeded in a trough formed by two parallel (1 cm apart) strips of glass coverslip (No. 1, length of 22 mm) fixed to the base of the dish with silicone grease. Scratch lines were made perpendicular to the long axis of the chamber with a fine sterile needle and used as reference marks for directed cell migration. Cells were incubated for 24-48 hours (37° C., 5% CO2) before a roof coverslip was applied and sealed with silicone grease. The final dimensions of the chamber, through which current was passed, were 22×10×0.2 mm. Agar-salt bridges not less than 15 cm long were used to connect silver/silver-chloride electrodes in beakers of Steinberg's solution (58 mM NaCl, 0.67 mM KCl, 0.44 mM Ca(NO3)2, 1.3 mM MgSO4, 4.6 mM Trizma base, pH 7.8-8.0), to pools of excess culture medium at either side of the chamber. Field strengths were measured directly at the beginning of, the end of and during each experiment. No fluctuations in field strength were observed. […] (50 μM), the Rho kinase inhibitor Y27632 (50 μM), both Akt and Rho kinase inhibitors (10 μM each) or latrunculin (50 nM) for 1 hour before EF stimulation. […]
A series of images was taken with an image analyser immediately before EF exposure and at 4, 8 and 24 hours of EF exposure. Cell orientation was quantified as an orientation index (Oi), which is defined as Oi=cos2(α), where α is the angle formed by the long axis of a cell with a line drawn perpendicular to the field lines. […] The significance of this two-dimensional orientation distribution against randomness was calculated using Rayleigh's distribution. A long:short axis ratio was calculated for assessment of elongation.

HUVEC cells [2] = assay: EF-induced reorientation of endothelial cells (orientation index Oi); format: cell-based, human
Description: HUVEC cells were seeded in a trough formed by two parallel (1 cm apart) strips of glass coverslip (No. 1, length of 22 mm) fixed to the base of the dish with silicone grease. Scratch lines were made perpendicular to the long axis of the chamber with a fine sterile needle and used as reference marks for directed cell migration. Cells were incubated for 24-48 hours (37° C., 5% CO2) before a roof coverslip was applied and sealed with silicone grease. The final dimensions of the chamber, through which current was passed, were 22×10×0.2 mm. Agar-salt bridges not less than 15 cm long were used to connect silver/silver-chloride electrodes in beakers of Steinberg's solution (58 mM NaCl, 0.67 mM KCl, 0.44 mM Ca(NO3)2, 1.3 mM MgSO4, 4.6 mM Trizma base, pH 7.8-8.0), to pools of excess culture medium at either side of the chamber. Field strengths were measured directly at the beginning of, the end of and during each experiment. […] (50 μM), the Rho kinase inhibitor Y27632 (50 μM), both Akt and Rho kinase inhibitors (10 μM each) or latrunculin (50 nM) for 1 hour before EF stimulation. The same concentration of drug was present during EF exposure in a CO2 incubator.
A series of images was taken with an image analyser immediately before EF exposure and at 4, 8 and 24 hours of EF exposure. Cell orientation was quantified as an orientation index (Oi), which is defined as Oi=cos2(α), where α is the angle formed by the long axis of a cell with a line drawn perpendicular to the field lines. A cell with its long axis parallel to the vector of the EF will have an Oi of −1, and a cell with its long axis exactly perpendicular to the EF vector will have an Oi of +1. […] The significance of this two-dimensional orientation distribution against randomness was calculated using Rayleigh's distribution. A long:short axis ratio was calculated for assessment of elongation.

Human keratinocytes = assay: in vitro scratch assay (cell migration); format: cell-based
Excerpt: The in vitro scratch assay is an easy, low-cost and well-developed method to measure cell migration in vitro. The basic steps involve creating a “scratch” in a cell monolayer, capturing images at the beginning and at regular intervals during cell migration to close the scratch, and comparing the images to quantify the migration rate of the cells. Compared to other methods, the in vitro scratch assay is particularly suitable for studies on the effects of cell-matrix and cell-cell interactions on cell migration, mimic cell migration during wound healing in vivo and are compatible with imaging of live cells during migration to monitor intracellular events if desired. In addition to monitoring migration of homogenous cell populations, this method has also been adopted to measure migration of individual cells in the leading edge of the scratch.
Human keratinocytes were plated under plated under placebo or a LLEC system described herein (labeled “PROCELLERA®”). Cells were also plated under silver-only or zinc-only dressings. After 24 hours, the scratch assay was performed.
Cell culture—Immortalized HaCaT human keratinocytes were grown in Dulbecco's low-glucose modified Eagle's medium (Life Technologies, Gaithersburg, Md., U.S.A.) supplemented with 10% fetal bovine serum, 100 U/ml penicillin, and 100 μg/ml streptomycin. The cells were maintained in a standard culture incubator with humidified air containing 5% CO2 at 37° C.
Scratch assay—A cell migration assay was performed using culture inserts (IBIDI®, Verona, Wis.) according to the manufacturer's instructions. Cell migration was measured using time-lapse phase-contrast microscopy following withdrawal of the insert. Images were analyzed using the AxioVision Rel 4.8 software.
N-Acetyl Cysteine Treatment—Cells were pretreated with 5 mM of the thiol antioxidant N-acetylcysteine (Sigma) for 1 h before start of the scratch assay.
IGF-1 R inhibition—When applicable, cells were preincubated with 50 nM IGF-1 R inhibitor, picropodophyllin (Calbiochem, Mass.) just prior to the Scratch Assay. […]

[3] = inhibitor 50 μM, 1 hour before and during EF

**Q.** “1-L-6-hydroxymethyl-chiro-inositol 2-[(R)-2-O-methyl-3-O-octadecylcarbonate] [Akt inhibitor]” was tested. Which “long:short axis ratio in EF-treated cells” value (HUVEC cells [1]) did it give?
**A.** The value was “significantly decreased the long:short axis ratio”.

**Q.** And the “orientation response of cells in an EF” value (HUVEC cells [2]; [3])?
**A.** The value was “significantly decreased the orientation response”.

**Q.** With COc1cc([C@@H]2c3cc4c(cc3[C@H](O)[C@H]3COC(=O)[C@@H]23)OCO4)cc(OC)c1OC [IGF-1 R inhibitor, picropodophyllin] as the compound, how does the “increased keratinocyte migration observed with LLEC, in presence of IGF-1 R inhibitor” value (Human keratinocytes; 50 nM picropodophyllin just prior to scratch assay) read?
**A.** Its value is “attenuated the increased keratinocyte migration”.

**Q.** Which EF-induced elongation response (HUVEC cells [1]; latrunculin 50 nM) does the source give for C/C1=C/C(=O)O[C@@H]2C[C@@H](CC[C@H](C)/C=C\C=C\CC1)O[C@@](O)([C@@H]1CSC(=O)N1)C2 [Latrunculin A] here?
**A.** The EF-induced elongation response was “completely abolished the EF-induced elongation response”.

**Q.** What about the “orientation response of cells in an EF” value (HUVEC cells [2]; latrunculin 50 nM, P<0.001) of the same compound?
**A.** Its value is “suppressed the orientation response significantly”.

**Q.** With CC(=O)N[C@@H](CS)C(=O)O [N-Acetyl Cysteine, N-acetylcysteine] as the compound, how does the “increased keratinocyte migration observed with LLEC, in presence of N-acetyl cysteine” value (Human keratinocytes; 5 mM, 1 h pretreatment before scratch assay) read?
**A.** Its value is “failed to reproduce the increased migration”.

**Q.** Which “orientation response of cells in an EF” value (HUVEC cells [2]; [3]) does the source give for COc1cc2ncnc(Nc3ccc(Cl)cc3F)c2cc1OC [VEGFR inhibitor, 4-[(4′-chloro-2′-fluoro)phenylamino]-6,7-dimethoxyquinazoline] here?
**A.** The value was “completely abolished the reorientation of cells in an EF”.

**Q.** How did the “long:short axis ratio in EF-treated cells” value (HUVEC cells [1]) turn out when C[C@@H](N)[C@H]1CC[C@H](C(=O)Nc2ccncc2)CC1 [Y27632] was run?
**A.** Its value is “significantly decreased the long:short axis ratio”.

**Q.** catalase was tested. Which “increased migration triggered by the LLEC, with over-expression of catalase” value (Human keratinocytes; HaCaT transfected with AdCatalase, 72 h) did it give?
**A.** The value was “attenuated the increased migration”.
